Results on 41 compounds are retold here after ChEMBL document CHEMBL1135944, “Identification of potent and selective oxytocin antagonists. Part 1: indole and benzofuran derivatives” (Bioorg Med Chem Lett, 2002).

Molecules are shown by their SMILES. pKi: −log10 of the molar value.

In data set [1] the target is T1, Oxytocin receptor (Homo sapiens, UniProt P30559).
T1 sequence (P30559 whole entry): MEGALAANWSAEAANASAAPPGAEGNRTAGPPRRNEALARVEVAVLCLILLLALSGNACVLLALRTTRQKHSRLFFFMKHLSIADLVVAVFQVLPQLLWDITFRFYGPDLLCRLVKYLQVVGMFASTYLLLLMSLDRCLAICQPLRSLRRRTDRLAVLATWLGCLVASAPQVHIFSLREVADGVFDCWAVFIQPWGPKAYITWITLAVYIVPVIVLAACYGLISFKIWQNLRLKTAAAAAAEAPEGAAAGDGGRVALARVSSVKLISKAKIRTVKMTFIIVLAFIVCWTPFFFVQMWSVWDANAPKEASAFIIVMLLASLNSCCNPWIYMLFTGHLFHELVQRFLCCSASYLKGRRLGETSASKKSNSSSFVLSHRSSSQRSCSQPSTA
Kind of data set: Ability to displace [3H]oxytocin from human OT receptor (hOT).

A short description of data set [2]: The pharmacokinetic parameter, clearance was reported in dog after intravenous administration. The data set is classed as ADME, organism-based, Canis lupus familiaris. Particulars: in vivo.
Data set [3] addresses T1, Oxytocin receptor. Kind of data set: Compound was tested for its ability to displace [3H]oxytocin from human Oxytocin receptor.
Data set [4] can be described thus: Bioavailability in dog. The data set is classed as ADME, organism-based, Canis lupus familiaris. Particulars: in vivo.

Usually pKi stands for the negative decadic logarithm of the Ki, by convention in mol/L. Read a high pKi as a low Ki. In turn, `Cc1nc(-c2ccncc2)sc1C(=O)N1CCC(N2C(=O)OCc3ccccc32)CC1` showed a pKi at Oxytocin receptor [1] of 6.90.

Turning to `CC(=O)NCCn1ccc2cc(C(=O)N3CCC(N4C(=O)OCc5ccccc54)CC3)ccc21`, the pKi at Oxytocin receptor [1] was 6.40. Against the preceding compound, the pKi is 0.50 log units lower. One may read the clearance as the volume of plasma or blood freed of the substance per unit of time. `CC(=O)NCc1cc2cc(C(=O)N3CCC(N4C(=O)OCc5ccccc54)CC3)ccc2o1` showed a pKi at Oxytocin receptor [1] of 7.20. The compound also gave a clearance in data set [2] of 8 mL/min/kg. `CS(=O)(=O)N1CCC[C@H]1Cn1ccc2cc(C(=O)N3CCC(N4C(=O)OCc5ccccc54)CC3)ccc21` had a pKi on Oxytocin receptor [3] of 6.90. On Oxytocin receptor [1], `O=C(Cc1cccnc1)NCc1cc2cc(C(=O)N3CCC(N4C(=O)OCc5ccccc54)CC3)ccc2o1` gave a negative-log Ki (pKi) of 7.60. Besides, the clearance in data set [2] amounted to 49 mL/min/kg. Regarding `Cc1cc(C(=O)N2CCC(N3C(=O)OCc4ccccc43)CC2)cc2ccn(C[C@H]3CCCN3S(C)(=O)=O)c12`, the pKi on Oxytocin receptor [1] is 8.00.

Turning to `Cc1cc2cc(C(=O)N3CCC(N4C(=O)OCc5ccccc54)CC3)ccc2[nH]1`, the pKi on Oxytocin receptor [1] is 6.90.

Consider `CC(=O)N1CCC[C@@H]1c1cc2cc(C(=O)N3CCC(N4C(=O)OCc5ccccc54)CC3)ccc2o1`, for which the pKi at Oxytocin receptor [1] is 7.60. In data set [2], this compound yielded a clearance of 31 mL/min/kg. Take `CN(CCn1cnc2cc(C(=O)N3CCC(N4C(=O)OCc5ccccc54)CC3)ccc21)S(C)(=O)=O`: the pKi on Oxytocin receptor [1] was 6.40. For `O=C(CN1CCCC1=O)NCc1cc2cc(C(=O)N3CCC(N4C(=O)OCc5ccccc54)CC3)ccc2o1`, on Oxytocin receptor [1], the pKi is 7.60. The compound further yielded a clearance in data set [2] of 34 mL/min/kg.

Compound `CN(CCn1ccc2cc(C(=O)N3CCC(N4C(=O)OCc5ccccc54)CC3)ccc21)S(C)(=O)=O` gave a pKi at Oxytocin receptor [1] of 7.40. A word on the bioavailability: it is dose-corrected exposure relative to a reference, in per cent. Consider `CC(=O)N1CCC(c2cc3cc(C(=O)N4CCC(N5C(=O)OCc6ccccc65)CC4)ccc3o2)CC1`, for which the bioavailability in data set [4] came to 49%. The compound further showed a pKi at Oxytocin receptor [1] of 7.20. This compound also displayed a clearance in data set [2] of 6 mL/min/kg. In data set [4], `CC(=O)NCC(=O)NCc1cc2cc(C(=O)N3CCC(N4C(=O)OCc5ccccc54)CC3)ccc2o1` registered a bioavailability of 16%. Also, at Oxytocin receptor [1], the pKi was 7.80. This compound also returned a clearance in data set [2] of 18 mL/min/kg. Taken in the same sequence, the figures for `CC(=O)NCCc1cc2cc(C(=O)N3CCC(N4C(=O)OCc5ccccc54)CC3)ccc2o1` were 27%, 7.40 and 9 mL/min/kg.

On to `CS(=O)(=O)N1CCN(Cc2cc3cc(C(=O)N4CCC(N5C(=O)OCc6ccccc65)CC4)ccc3o2)CC1`, for which the bioavailability in data set [4] worked out at 100%. This compound had a pKi on Oxytocin receptor [1] of 7.20. For the same compound, the clearance in data set [2] came out at 7 mL/min/kg.

Take `O=C(c1ccc2ncsc2c1)N1CCC(N2C(=O)OCc3ccccc32)CC1`: on Oxytocin receptor [1], the pKi is 6.10. As to `CS(=O)(=O)N1CCC[C@@H]1Cc1coc2cc(C(=O)N3CCC(N4C(=O)OCc5ccccc54)CC3)ccc12`, the pKi on Oxytocin receptor [1] was 6.70. Compared with the last compound, the pKi is 0.60 log units higher. As to `CS(=O)(=O)N1CCC[C@@H]1Cn1ccc2cc(C(=O)N3CCC(N4C(=O)OCc5ccccc54)CC3)ccc21`, the negative logarithm of the Ki (pKi) on Oxytocin receptor [1] is 7.70.

In the case of `O=C(c1ccc2occc2c1)N1CCC(N2C(=O)OCc3ccccc32)CC1`, at Oxytocin receptor [1], the pKi was 6.60.

For `CS(=O)(=O)N1CCC(c2cc3cc(C(=O)N4CCC(N5C(=O)OCc6ccccc65)CC4)ccc3o2)CC1`, the bioavailability in data set [4] was found to be 69%. At Oxytocin receptor [1], this compound showed a pKi of 7.10. Further, the clearance in data set [2] stood at 9 mL/min/kg. The compound `O=C(c1ccc2[nH]ccc2c1)N1CCC(N2C(=O)OCc3ccccc32)CC1` gave a pKi at Oxytocin receptor [1] of 6.70. For the compound `CN1CCC(=O)N(CC(=O)NCc2cc3cc(C(=O)N4CCC(N5C(=O)OCc6ccccc65)CC4)ccc3o2)C1=O`, the pKi at Oxytocin receptor [1] was 8.40. In addition, the clearance in data set [2] is 27 mL/min/kg. As to `CN(Cc1cc2cc(C(=O)N3CCC(N4C(=O)OCc5ccccc54)CC3)ccc2o1)C(=O)CN1C(=O)CNC1=O`, the bioavailability in data set [4] amounted to 12%. This compound gave a pKi on Oxytocin receptor [1] of 7.60. This compound also gave a clearance in data set [2] of 15 mL/min/kg.

In data set [4], `O=C(CN1C(=O)CNC1=O)NCc1cc2cc(C(=O)N3CCC(N4C(=O)OCc5ccccc54)CC3)ccc2o1` gave a bioavailability of 8%. The pKi on Oxytocin receptor [1] was 8.20. In data set [2], the clearance was 17 mL/min/kg. `CC(=O)N1CCCC(c2cc3cc(C(=O)N4CCC(N5C(=O)OCc6ccccc65)CC4)ccc3o2)C1` (centres undefined): at Oxytocin receptor [1], the negative logarithm of the Ki (pKi) was 6.70. With `O=C(c1ccc2ccoc2c1)N1CCC(N2C(=O)OCc3ccccc32)CC1`, the pKi at Oxytocin receptor [1] is 6.40. On Oxytocin receptor [1], `COc1cc(OC2CCN(C(C)=O)CC2)ccc1C(=O)N1CCC(N2C(=O)OCc3ccccc32)CC1` gave a pKi of 8.00. Consider `Cc1nc(-c2cccs2)ncc1C(=O)N1CCC(N2C(=O)OCc3ccccc32)CC1`, for which, at Oxytocin receptor [1], the pKi was 6.80.

At Oxytocin receptor [1], `O=C(c1ccc2[nH]ccc2n1)N1CCC(N2C(=O)OCc3ccccc32)CC1` gave a pKi of 6.10. Compared with the last compound, the pKi is 0.70 log units lower. Compound `CC(=O)N1CCC[C@@H]1Cn1ccc2cc(C(=O)N3CCC(N4C(=O)OCc5ccccc54)CC3)ccc21` gave a pKi at Oxytocin receptor [1] of 6.80. Same read-out and setting: with `CS(=O)(=O)NCCn1ccc2cc(C(=O)N3CCC(N4C(=O)OCc5ccccc54)CC3)ccc21` the figure was 6.50. Compound `CC1(C)NC(=O)N(CC(=O)NCc2cc3cc(C(=O)N4CCC(N5C(=O)OCc6ccccc65)CC4)ccc3o2)C1=O` had a pKi on Oxytocin receptor [1] of 7.80. Further, the clearance in data set [2] stood at 20 mL/min/kg. `O=C(c1ccc2cc[nH]c2c1)N1CCC(N2C(=O)OCc3ccccc32)CC1`: the negative-log Ki (pKi) on Oxytocin receptor [1] is 6.70. The compound `CC1OC(=O)N(CC(=O)NCc2cc3cc(C(=O)N4CCC(N5C(=O)OCc6ccccc65)CC4)ccc3o2)C1=O` (centres undefined) had a pKi on Oxytocin receptor [1] of 7.60.

In turn, `Cc1c[nH]c2ccc(C(=O)N3CCC(N4C(=O)OCc5ccccc54)CC3)cc12` gave a negative logarithm of the Ki (pKi) at Oxytocin receptor [1] of 6.10. Compared with the last compound, the pKi is 1.50 log units lower. Still for that read-out and setting: for `CN(CCCn1ccc2cc(C(=O)N3CCC(N4C(=O)OCc5ccccc54)CC3)ccc21)S(C)(=O)=O` the value was 6.80; for `Cc1c(C)n(C[C@H]2CCCN2S(C)(=O)=O)c2ccc(C(=O)N3CCC(N4C(=O)OCc5ccccc54)CC3)cc12`, 6.40. For `CN1CC(=O)N(CC(=O)NCc2cc3cc(C(=O)N4CCC(N5C(=O)OCc6ccccc65)CC4)ccc3o2)C1=O`, the pKi on Oxytocin receptor [1] is 8.50. In data set [2], this compound displayed a clearance of 20 mL/min/kg.

Turning to `Cn1ccc2cc(C(=O)N3CCC(N4C(=O)OCc5ccccc54)CC3)ccc21`, on Oxytocin receptor [1], the pKi was 6.90.

Regarding `CC(=O)N(C)CCn1ccc2cc(C(=O)N3CCC(N4C(=O)OCc5ccccc54)CC3)ccc21`, the pKi on Oxytocin receptor [1] was 7.20.

Turning to `CC(=O)N1CCN(Cc2cc3cc(C(=O)N4CCC(N5C(=O)OCc6ccccc65)CC4)ccc3o2)CC1`, the bioavailability in data set [4] stood at 44%. Also, the pKi at Oxytocin receptor [1] was 7.10. The clearance in data set [2] turned out to be 11 mL/min/kg.
